Assay results published in publication PMC3688528, “Location of the CD8 T Cell Epitope within the Antigenic Precursor Determines Immunogenicity and Protection against the Toxoplasma gondii Parasite” (PLoS Pathogens, 2013).
“And” between values parts separate entries of the source, which are not always exact repeats. Identical values can stand only once.

Tests used:
L^d MHC I molecule = target: T1, L^d MHC I molecule (Mus musculus, UniProt P01897); assay: MHC I stabilization assay on TAP-deficient RMA-S.L^d cells; format: binding; conditions: flow cytometry MFI
T1 construct: expressed in transfected cells; host or cells: RMA-S.L^d cells (TAP-deficient), gift from T. Hansen
T1 sequence (P01897 25-362): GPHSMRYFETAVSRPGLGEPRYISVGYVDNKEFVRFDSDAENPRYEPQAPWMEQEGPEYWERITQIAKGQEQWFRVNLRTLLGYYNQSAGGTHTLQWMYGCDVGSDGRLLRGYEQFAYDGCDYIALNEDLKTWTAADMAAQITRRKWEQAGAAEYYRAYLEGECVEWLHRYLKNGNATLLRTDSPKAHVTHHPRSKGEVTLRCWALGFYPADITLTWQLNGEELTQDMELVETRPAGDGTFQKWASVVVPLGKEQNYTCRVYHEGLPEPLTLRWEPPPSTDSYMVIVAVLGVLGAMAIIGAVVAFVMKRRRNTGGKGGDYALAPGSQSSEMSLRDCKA
T1 sequence (P01887 21-119 partner): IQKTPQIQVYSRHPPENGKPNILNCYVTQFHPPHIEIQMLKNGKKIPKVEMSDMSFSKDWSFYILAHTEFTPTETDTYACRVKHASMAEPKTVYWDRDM
Text: We took advantage of the genetic diversity among three common T. gondii strains (type I, II and III). While the GRA4-derived SM9 and ROP7-derived IF9 peptides are conserved (data not shown and ToxoDB.org), the GRA6-derived HF10 peptide is polymorphic between type II and type I/III strains. Within the last 10 residues of GRA6, four non-synonymous single-nucleotide polymorphisms differentiate the type II sequence (HF10: HPGSVNEFDF) from the type I/III sequence (HY10: HPERVNVFDY) (Fig. 1A and Fig. S1 in Text S1). We noted that instead of a phenylalanine (F), the C-terminal residue in GRA6III is a tyrosine (Y), a residue not expected to be an appropriate anchor residue for L^d binding. To evaluate the ability of HF10 and HY10 to bind to L^d, we used an MHC I stabilization assay. TAP-deficient RMA-S cells display empty, unstable MHC I molecules and addition of exogenous peptides that can bind to MHC I can stabilize their expression on the cell surface, as read out by flow cytometry.
RMA-S.L^d cells were a gift from T. Hansen (St-Louis, MO, USA). RMA-S.L^d cells were incubated at 37°C, 5% CO2 for 8 h to saturate the culture medium with CO2. The flask was sealed with parafilm and incubated at RT overnight. The next day, cells were washed with PBS and plated at 3×10^5 cells/well in a 96-W plate. Peptide was added to the cells in serial dilutions. The plate was incubated for 1 h at RT and 3 h at 37°C. Cells were stained with the 30-5-7 antibody (specific for conformed, peptide-bound L^d) and a phycoerythrine (PE)-coupled goat anti-mouse secondary antibody and analyzed by flow cytometry.

type II parasite = conditions: H2^d mice immunized with HF10-loaded bone marrow-derived dendritic cells; cited from earlier work
[1] = system: CD8 T cells from spleens of T. gondii-infected B10.D2 mice; assay: Ex vivo IFN-γ intracellular staining of splenocytes restimulated in vitro with peptide; format: cell-based; conditions: splenocytes of B10.D2 mice 3 weeks post-infection with CEP+GRA6II; one representative mouse out of 3
Experimental: (§1) Mice were sacrificed 3 to 4 weeks after infection. Spleens were dissociated into single-cell suspensions in complete RPMI (Invitrogen) supplemented with 10% (vol/vol) FCS (Hyclone). Samples were depleted of erythrocytes with ACK lysis buffer (100 µM EDTA, 160 mM NH4Cl and 10 mM NaHCO3). Leukocytes from the brain were prepared as in [17]. In brief, brains were minced and digested for 1 h at 37°C with 1 mg/ml collagenase (Sigma) and 100 µg/ml DNAseI (Roche) in complete RPMI. Brain suspensions were filtered through 70-µm cell strainers and centrifuged for 10 min at 200 g. Cells were resuspended in 60% (vol/vol) Percoll (GE Healthcare), overlaid on 30% (vol/vol) Percoll and centrifuged 20 min at 1,000 g. Infiltrating mononuclear cells were collected from the gradient interface and the remaining erythrocytes were lyzed with ACK lysis buffer.
(§2) For other stainings, surfaces were labeled according to standard procedures with flow cytometry buffer (3% (vol/vol) FCS and 1 mM EDTA in PBS). Intracellular IFN-γ was detected with the Cytofix/Cytoperm kit (BD Pharmingen). DimerX H-2L^d:Ig (fusion protein of H-2L^d and immunoglobulin; BD Biosciences) was used according to the manufacturer's instructions and as described in [17]. All flow cytometry data were acquired on an XL Analyzer (Coulter) or a LSRII (Becton Dickinson) and were analyzed with FlowJo software (Tree Star).

[2] = system: T. gondii-specific CD8 T cells of infected B10.D2 mice; assay: Ex vivo staining of peptide-specific CD8 T cells with peptide-loaded L^d DimerX; format: cell-based, mouse; conditions: B10.D2 mice 4 weeks post-infection; HF10 value in CEP+GRA6II-infected mice; mean +/- s.d.; 3 independent experiments pooled; SD
Experimental: as §1, §2

[3] = system: naïve T. gondii-specific CD8α+ T cells in naive B10.D2 mice; assay: Naïve T cell enumeration by tetramer-based enrichment and flow cytometry; design: species or system mouse
Experimental: We next assessed whether abundance of peptide-specific T cells in the repertoire of naïve mice may control immunodominance. We employed a tetramer-based enrichment procedure, [24] to enumerate naïve T cells isolated from spleen and lymph nodes of uninfected mice and specific for each of the 3 epitopes. Numbers of T cell precursors were analyzed by flow cytometry after gating on a population of live dump^− (dump = B220, F4/80, MHC II) CD3^+ CD8α^+ cells (Fig. S4 in Text S1). […] Thus the immunodominance of HF10 cannot be explained by a high starting precursor frequency of specific T cells.
Spleen and major lymph nodes from individual naïve B10.D2 mice were harvested. Single cell suspension was stained with PE-labeled (Prozyme) SM9:L^d, IF9:L^d or HF10:L^d tetramers (NIH tetramer facility). Tetramer enrichment was performed on each sample with anti-PE magnetic beads (Miltenyi Biotec) and each sample was stained with antibodies (BD Biosciences) for flow cytometry analysis. Total numbers of CD8α^+tetramer^+ T cells per mouse were determined as before, [24].

[4] = MHC I stabilization on RMA-S.L^d cells, representative of 3 assays
[5] = uninfected B10.D2 mice, tetramer enrichment

## HPGSVNEFDF [HF10, decamer peptide derived from type II GRA6 C-terminus, presented by L^d MHC I]
L^d MHC I molecule; [4]
  Affinity for L^d relative to SM9 (in words): fell in the same range as the T. gondii subdominant peptide SM9
  Affinity for L^d, fold higher than that of IF9, QL9 and YL9: ~10 fold
L^d MHC I molecule; RMA-S.L^d cells pulsed with serial peptide dilutions, 1 h RT and 3 h 37°C, 30-5-7 antibody, representative of 2 assays
  Peptide concentration stabilizing L^d surface expression, fold lower compared to HY10: 1000 fold
Type II parasite
  Protection against lethal parasite challenge (in words): protects against lethal type II parasite challenge
[1]
  Percentage of IFN-γ+ out of CD8+ cells after peptide restimulation: 24.7% and ~25%
[2]
  Frequency of peptide-specific CD8 T cells in the spleen (peptide-loaded L^d dimers): 9.5%+/−3.7
[3]; spleen and lymph nodes of uninfected B10.D2 mice, peptide:L^d tetramer enrichment, mean, pooled from 3 independent experiments
  Number of tetramer+ cells / mouse (naïve peptide-specific CD8α+ T cells): 400 cells / mouse
[3]; [5]
  Frequency of naïve HF10-specific CD8 T cells, fold lower than IF9-specific: ~3 fold
  Frequency of naïve HF10-specific CD8 T cells, fold lower than SM9-specific: around 10 fold
